From paper PMC7695835, “Pharmacological characterisation of novel adenosine A3 receptor antagonists” (Scientific Reports, 2020)

Assays:
A3R [1] = target: T1, A3R (Homo sapiens, UniProt P0DMS8); settings: 1 nM [3H]HEMADO; ref Lagarias et al.[19]; read-out: Radioligand binding Ki A3R; cited from earlier work
T1 sequence (P0DMS8 1-318): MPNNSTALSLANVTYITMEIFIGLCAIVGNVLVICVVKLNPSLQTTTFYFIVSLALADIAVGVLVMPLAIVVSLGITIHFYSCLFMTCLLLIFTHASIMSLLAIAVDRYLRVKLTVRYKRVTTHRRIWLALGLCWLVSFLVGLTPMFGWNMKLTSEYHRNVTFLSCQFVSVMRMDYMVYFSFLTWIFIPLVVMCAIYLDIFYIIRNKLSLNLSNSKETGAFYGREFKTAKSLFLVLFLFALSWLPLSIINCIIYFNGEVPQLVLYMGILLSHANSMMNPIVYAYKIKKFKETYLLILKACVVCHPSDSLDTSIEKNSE

A1R = target: T2, A1R (Homo sapiens, UniProt P30542); design: method as in Lagarias et al.[19]; settings: 1 nM [3H]CCPA; ref Lagarias et al.[19]; read-out: Radioligand binding Ki A1R; cited from earlier work
T2 construct: expressed in transfected cells
T2 sequence (P30542 1-326): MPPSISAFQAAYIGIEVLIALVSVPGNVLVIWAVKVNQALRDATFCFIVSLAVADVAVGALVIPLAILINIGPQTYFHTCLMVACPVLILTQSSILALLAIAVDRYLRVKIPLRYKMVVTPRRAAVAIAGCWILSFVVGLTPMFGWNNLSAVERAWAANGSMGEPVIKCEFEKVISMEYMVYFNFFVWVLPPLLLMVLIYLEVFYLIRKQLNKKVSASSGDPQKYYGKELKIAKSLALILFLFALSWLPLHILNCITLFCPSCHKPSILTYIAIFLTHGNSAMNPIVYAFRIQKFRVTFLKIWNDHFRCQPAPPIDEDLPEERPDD

A3R [2] = target: T1, A3R; settings: for cAMP accumulation Mean: 10 μM forskolin + NECA IC80 (3.16 nM) + 1 μM compound, mean ± SEM, n = 3; for cAMP accumulation Mean difference between 'NECA' and compound: 10 μM forskolin + NECA IC80 + 1 μM compound
A2AR = target: T3, A2AR (Homo sapiens, UniProt P29274); design: method as in Lagarias et al.[19]; settings: 10 nM [3H]NECA; ref Lagarias et al.[19]; read-out: Radioligand binding Ki A2AR; cited from earlier work
T3 construct: expressed in transfected cells; host or cells: CHO cells, membrane preparation
T3 sequence (P29274 whole entry): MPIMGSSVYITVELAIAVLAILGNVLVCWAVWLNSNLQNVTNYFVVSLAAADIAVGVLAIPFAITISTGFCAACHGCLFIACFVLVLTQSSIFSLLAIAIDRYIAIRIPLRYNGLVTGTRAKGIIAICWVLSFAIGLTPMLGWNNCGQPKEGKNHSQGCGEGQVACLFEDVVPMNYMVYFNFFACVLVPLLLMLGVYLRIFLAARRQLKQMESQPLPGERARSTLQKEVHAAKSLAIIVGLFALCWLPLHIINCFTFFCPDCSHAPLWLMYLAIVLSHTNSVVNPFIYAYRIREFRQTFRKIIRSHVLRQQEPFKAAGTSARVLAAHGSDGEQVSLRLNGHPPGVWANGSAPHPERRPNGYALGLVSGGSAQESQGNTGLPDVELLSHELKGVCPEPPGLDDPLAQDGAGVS

Structure (SMILES)	Ki (A3R [1]) [µM]	Ki (A1R) [µM]	cAMP accumulation Mean (A3R [2]) [%10 μM forskolin response]	cAMP accumulation Mean difference between 'NECA' and compound (A3R [2]) [%10 μM forskolin response]	Ki (A2AR) [µM]
COc1ccc(CSC(=N)Nc2ccccc2Cl)cc1.Cl [Compound K2]	16.6	> 100	68.28 ±2.94	-7.96	61.3
NC(=NOC(=O)c1csnn1)c1ccc(-c2csnn2)cc1 [Compound K3]	> 100	> 100	63.37 ±2.66	-3.05	> 100
NC(=NNC(=O)Nc1ccc(Cl)cc1)c1ccc(C(F)(F)F)cn1 [Compound K4]	> 100	> 100	59.06 ±0.13	1.26	> 100
Cc1nc(C(N)=NOC(=O)c2c(-c3ccccc3)noc2C)cs1 [Compound K5]	–	> 100	–	–	21.8
O=C(Nc1ccc(OC(F)(F)F)cc1)Nc1cc(-c2cccs2)n[nH]1 [Compound K6]	30.6	> 100	64.01 ±5.22	-3.69	> 100
Cc1onc(-c2ccccc2Cl)c1C(=O)O/N=C(\N)c1ccc(I)cc1 [Compound K9]	–	6.91	–	–	> 100
Cc1onc(-c2ccccc2Cl)c1C(=O)O/N=C(\N)c1ccncc1 [Compound K11]	–	> 60	–	–	30
Nc1sccc1C(=O)NCCc1ccccc1 [Compound K12]	37.1	> 100	59.66 ±0.98	0.66	> 60
COc1ccc(CCNC(=O)c2c(N)sc3c2CCC3)cc1OC [Compound K13]	16.5	> 30	56.25 ±1.44	4.07	> 60
COc1ccc(CCNC(=O)c2c(N)sc3c2CCCC3)cc1OC [Compound K14]	14.8	> 30	61.09 ±3.04	-0.77	> 60
Cc1cccc(/C(N)=N/OC(=O)c2c(-c3ccccc3Cl)noc2C)c1 [Compound K15]	–	> 100	–	–	> 100
NNC(=O)c1sc(-c2ccccc2)cc1N [Compound K16]	19.7	> 30	51.51 ±4.91	8.81	31.7
COc1ccccc1N=C(N)SCc1ccccc1 [Compound K19]	> 100	> 100	64.58 ±4.94	-4.26	> 100
CCOC(=O)CC(=O)Nc1ccsc1C(N)=O [Compound K28]	> 100	18	64.14 ±1.73	-3.82	30
CCC(C)CC(=O)Nc1ccsc1C(N)=O (stereo not drawn) [Compound K35]	27.4	7.33	71.56 ±3.54	-11.24	> 30
